The target in this assay is T1, B1R receptor of the rat (CHO K1 cells stably transfected with the B1R gene of the rat) (Rattus norvegicus, UniProt P97583).
T1 construct: expressed in transfected cells; host or cells: CHO K1 cells (Chinese hamster ovary), stably transfected
T1 sequence (P97583 1-337): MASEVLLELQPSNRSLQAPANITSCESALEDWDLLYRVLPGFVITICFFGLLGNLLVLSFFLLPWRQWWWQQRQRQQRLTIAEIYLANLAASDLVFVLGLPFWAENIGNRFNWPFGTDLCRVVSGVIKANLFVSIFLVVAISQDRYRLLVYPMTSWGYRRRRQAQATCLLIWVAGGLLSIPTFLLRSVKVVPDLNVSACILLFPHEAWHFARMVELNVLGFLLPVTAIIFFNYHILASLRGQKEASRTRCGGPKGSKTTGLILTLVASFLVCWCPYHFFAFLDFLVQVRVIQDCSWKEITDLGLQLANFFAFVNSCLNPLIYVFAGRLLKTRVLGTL
Nature of the assay: Functional study on the bradykinin receptor 1 (B1R), Ca2+ fluorescence (Fluo-4) FLIPR/Novostar assay, rB1R cells. Type of assay: cell-based. As to conditions: CHO-K1, 10 μM, read-out: % Inhibition (r-B1R) at 10 μM. In short, it runs like this: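 Test compounds (10 μM) were added first and the Ca2+ rise was scored as % activation against Lys-Des-Arg9-bradykinin (≥50 nM, human) or Des-Arg9-bradykinin (≥1 μM, rat). After 6-20 min, the matching agonist was given at its EC80, and % inhibition relative to maximal achievable inhibition was calculated.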
As for `Cc1cc(N2CCC(N(C)C(=O)c3ccc4c(c3)C(NC(=O)c3cc(Cl)ccc3Cl)CC4)CC2)cc(C)n1` (stereo not drawn) [CC_H-296, 3-[(2,5-Dichloro-benzoyl)amino]-N-[1-(2,6-dimethyl-pyridin-4-yl)-piperidin-4-yl]-N-methyl-2,3-dihydro-1H-indene-5-carboxylic acid amide], the inhibition at 10 µM stood at 112%.

Turning to `Cc1cc(N2CCC(N(C)C(=O)c3ccc4c(c3)C(NC(=O)C3CCCCC3)CC4)CC2)cc(C)n1` (stereo not drawn) [CC_H-297, 3-(Cyclohexanecarbonylamino)-N-[1-(2,6-dimethyl-pyridin-4-yl)-piperidin-4-yl]-N-methyl-2,3-dihydro-1H-indene-5-carboxylic acid amide], the inhibition at 10 µM turned out to be 110%.

As to `Cc1cc(N2CCC(N(C)C(=O)c3ccc4c(c3)C(NC(=O)C3CC3)CC4)CC2)cc(C)n1` (stereo not drawn) [CC_H-298, 3-(Cyclopropanecarbonylamino)-N-[1-(2,6-dimethyl-pyridin-4-yl)-piperidin-4-yl]-N-methyl-2,3-dihydro-1H-indene-5-carboxylic acid amide], the inhibition at 10 µM turned out to be 101%.

Regarding `Cc1cc(N2CCC(N(C)C(=O)c3ccc4c(c3)C(NC(=O)CC(C)(C)C)CC4)CC2)cc(C)n1` (stereo not drawn) [CC_H-299, 3-(3,3-Dimethyl-butanoylamino)-N-[1-(2,6-dimethyl-pyridin-4-yl)-piperidin-4-yl]-N-methyl-2,3-dihydro-1H-indene-5-carboxylic acid amide], the inhibition at 10 µM came out at 110%.

On to `COCC(=O)NC1CCc2ccc(C(=O)N(C)C3CCN(c4cc(C)nc(C)c4)CC3)cc21` (stereo not drawn) [CC_H-300, N-[1-(2,6-Dimethyl-pyridin-4-yl)-piperidin-4-yl]-3-[(2-methoxy-acetyl)amino]-N-methyl-2,3-dihydro-1H-indene-5-carboxylic acid amide], for which the inhibition at 10 µM is 103%.

Take `Cc1cc(N2CCC(N(C)C(=O)c3ccc4c(c3)C(NS(=O)(=O)Cc3ccccc3C(F)(F)F)CC4)CC2)cc(C)n1` (stereo not drawn) [CC_H-302, N-[1-(2,6-Dimethyl-pyridin-4-yl)-piperidin-4-yl]-N-methyl-3-[[[2-(trifluoromethyl)-phenyl]-methylsulfonyl]amino]-2,3-dihydro-1H-indene-5-carboxylic acid amide]: the inhibition at 10 µM is 112%.

For the compound `Cc1cc(N2CCC(N(C)C(=O)c3ccc4c(c3)C(NC(=O)c3cccc(C(F)(F)F)c3Cl)CC4)CC2)cc(C)n1` (stereo not drawn) [CC_H-303, 3-[[2-Chloro-3-(trifluoromethyl)-benzoyl]amino]-N-[1-(2,6-dimethyl-pyridin-4-yl)-piperidin-4-yl]-N-methyl-2,3-dihydro-1H-indene-5-carboxylic acid amide], the inhibition at 10 µM was determined as 112%.

With `Cc1cc(N2CCC(N(C)C(=O)c3ccc4c(c3)C(NC(=O)Nc3ccccc3Cl)CC4)CC2)cc(C)n1` (stereo not drawn) [CC_H-304, 3-[[(2-Chlorophenyl)-carbamoyl]amino]-N-[1-(2,6-dimethyl-pyridin-4-yl)-piperidin-4-yl]-N-methyl-2,3-dihydro-1H-indene-5-carboxylic acid amide], the inhibition at 10 µM stood at 98%.

In the case of `Cc1cc(N2CCC(N(C)C(=O)c3ccc4c(c3)C(NC(=O)Nc3cccc(Cl)c3)CC4)CC2)cc(C)n1` (stereo not drawn) [CC_H-305, 3-[[(3-Chlorophenyl)-carbamoyl]amino]-N-[1-(2,6-dimethyl-pyridin-4-yl)-piperidin-4-yl]-N-methyl-2,3-dihydro-1H-indene-5-carboxylic acid amide], the inhibition at 10 µM was 109%.

For `Cc1cc(N2CCC(N(C)C(=O)c3ccc4c(c3)C(NC(=O)Nc3c(Cl)cccc3Cl)CC4)CC2)cc(C)n1` (stereo not drawn) [CC_H-306, 3-[[(2,6-Dichloro-phenyl)-carbamoyl]amino]-N-[1-(2,6-dimethyl-pyridin-4-yl)-piperidin-4-yl]-N-methyl-2,3-dihydro-1H-indene-5-carboxylic acid amide], the inhibition at 10 µM is 107%.

For `Cc1cc(N2CCC(N(C)C(=O)c3ccc4c(c3)C(NC(=O)Nc3cccc(Cl)c3Cl)CC4)CC2)cc(C)n1` (stereo not drawn) [CC_H-307, 3-[[(2,3-Dichloro-phenyl)-carbamoyl]amino]-N-[1-(2,6-dimethyl-pyridin-4-yl)-piperidin-4-yl]-N-methyl-2,3-dihydro-1H-indene-5-carboxylic acid amide], the inhibition at 10 µM was 91%.

Turning to `Cc1cc(N2CCC(N(C)C(=O)c3ccc4c(c3)C(NC(=O)Nc3cc(Cl)ccc3Cl)CC4)CC2)cc(C)n1` (stereo not drawn) [CC_H-308, 3-[[(2,5-Dichloro-phenyl)-carbamoyl]amino]-N-[1-(2,6-dimethyl-pyridin-4-yl)-piperidin-4-yl]-N-methyl-2,3-dihydro-1H-indene-5-carboxylic acid amide], the inhibition at 10 µM amounted to 96%.

On to `Cc1cc(N2CCC(N(C)C(=O)c3ccc4c(c3)C(NC(=O)Nc3ccc(Cl)cc3Cl)CC4)CC2)cc(C)n1` (stereo not drawn) [CC_H-310, 3-[[(2,4-Dichlorophenyl)-carbamoyl]amino]-N-[1-(2,6-dimethyl-pyridin-4-yl)-piperidin-4-yl]-N-methyl-2,3-dihydro-1H-indene-5-carboxylic acid amide], for which the inhibition at 10 µM worked out at 101%.

Consider `Cc1cc(N2CCC(N(C)C(=O)c3ccc4c(c3)C(NC(=O)Nc3cc(C(F)(F)F)ccc3Cl)CC4)CC2)cc(C)n1` (stereo not drawn) [CC_H-311, 3-[[[2-Chloro-5-(trifluoromethyl)-phenyl]-carbamoyl]amino]-N-[1-(2,6-dimethyl-pyridin-4-yl)-piperidin-4-yl]-N-methyl-2,3-dihydro-1H-indene-5-carboxylic acid amide], for which the inhibition at 10 µM turned out to be 80%.

Turning to `Cc1cc(N2CCC(N(C)C(=O)c3ccc4c(c3)C(NC(=O)Nc3ccc(Cl)cc3C(F)(F)F)CC4)CC2)cc(C)n1` (stereo not drawn) [CC_H-312, 3-[[[4-Chloro-2-(trifluoromethyl)-phenyl]-carbamoyl]amino]-N-[1-(2,6-dimethyl-pyridin-4-yl)-piperidin-4-yl]-N-methyl-2,3-dihydro-1H-indene-5-carboxylic acid amide], the inhibition at 10 µM was found to be 92%.

Consider `Cc1cc(N2CCC(N(C)C(=O)c3ccc4c(c3)C(NC(=O)Nc3ccc(F)c(Cl)c3)CC4)CC2)cc(C)n1` (stereo not drawn) [CC_H-314, 3-[[(3-Chloro-4-fluoro-phenyl)-carbamoyl]amino]-N-[1-(2,6-dimethyl-pyridin-4-yl)-piperidin-4-yl]-N-methyl-2,3-dihydro-1H-indene-5-carboxylic acid amide], for which the inhibition at 10 µM stood at 81%.

Consider `COc1ccc(Cl)cc1NC(=O)NC1CCc2ccc(C(=O)N(C)C3CCN(c4cc(C)nc(C)c4)CC3)cc21` (stereo not drawn) [CC_H-315, 3-[[(5-Chloro-2-methoxy-phenyl)-carbamoyl]amino]-N-[1-(2,6-dimethyl-pyridin-4-yl)-piperidin-4-yl]-N-methyl-2,3-dihydro-1H-indene-5-carboxylic acid amide], for which the inhibition at 10 µM was 72%.

For the compound `Cc1cc(N2CCC(N(C)C(=O)c3ccc4c(c3)C(NC(=O)N(C)c3ccccc3Cl)CC4)CC2)cc(C)n1` (stereo not drawn) [CC_H-316, 3-[[(2-Chlorophenyl)-methyl-carbamoyl]amino]-N-[1-(2,6-dimethyl-pyridin-4-yl)-piperidin-4-yl]-N-methyl-2,3-dihydro-1H-indene-5-carboxylic acid amide], the inhibition at 10 µM was found to be 106%.

For the compound `Cc1cc(N2CCC(N(C)C(=O)c3ccc4c(c3)C(NC(=O)N(C)c3ccc(Cl)cc3Cl)CC4)CC2)cc(C)n1` (stereo not drawn) [CC_H-317, 3-[[(2,4-Dichlorophenyl)-methyl-carbamoyl]amino]-N-[1-(2,6-dimethyl-pyridin-4-yl)-piperidin-4-yl]-N-methyl-2,3-dihydro-1H-indene-5-carboxylic acid amide], the inhibition at 10 µM was found to be 110%.

For `Cc1cc(N2CCC(N(C)C(=O)c3ccc4c(c3)C(NC(=O)CC(C)C)CC4)CC2)cc(C)n1` (stereo not drawn) [CC_H-318, N-[1-(2,6-Dimethyl-pyridin-4-yl)-piperidin-4-yl]-N-methyl-3-(3-methyl-butanoylamino)-2,3-dihydro-1H-indene-5-carboxylic acid amide], the inhibition at 10 µM was determined as 111%.

For the compound `CCCC(=O)NC1CCc2ccc(C(=O)N(C)C3CCN(c4cc(C)nc(C)c4)CC3)cc21` (stereo not drawn) [CC_H-319, 3-(Butanoylamino)-N-[1-(2,6-dimethyl-pyridin-4-yl)-piperidin-4-yl]-N-methyl-2,3-dihydro-1H-indene-5-carboxylic acid amide], the inhibition at 10 µM came out at 106%.

With `Cc1cc(N2CCC(N(C)C(=O)c3ccc4c(c3)C(NC(=O)CCC3CCCC3)CC4)CC2)cc(C)n1` (stereo not drawn) [CC_H-320, 3-(3-Cyclopentyl-propanoylamino)-N-[1-(2,6-dimethyl-pyridin-4-yl)-piperidin-4-yl]-N-methyl-2,3-dihydro-1H-indene-5-carboxylic acid amide], the inhibition at 10 µM turned out to be 110%.

With `CCS(=O)(=O)NC1CCc2ccc(C(=O)N(C)C3CCN(c4cc(C)nc(C)c4)CC3)cc21` (stereo not drawn) [CC_H-321, N-[1-(2,6-Dimethyl-pyridin-4-yl)-piperidin-4-yl]-3-[(ethylsulfonyl)amino]-N-methyl-2,3-dihydro-1H-indene-5-carboxylic acid amide], the inhibition at 10 µM amounted to 65%.

In the case of `Cc1cc(N2CCC(N(C)C(=O)c3ccc4c(c3)C(NS(=O)(=O)Cc3cccc(C(F)(F)F)c3)CC4)CC2)cc(C)n1` (stereo not drawn) [CC_H-322, N-[1-(2,6-Dimethyl-pyridin-4-yl)-piperidin-4-yl]-N-methyl-3-[[[3-(trifluoromethyl)phenyl]-methylsulfonyl]amino]-2,3-dihydro-1H-indene-5-carboxylic acid amide], the inhibition at 10 µM turned out to be 84%.

As a reminder, the inhibition is the relative decrease from the control value, in per cent.

These data come from patent US8680159B2, “Bradykinin 1 receptor modulating compounds” (Gruenenthal GmbH, priority 2010, dated 2014).
